Measured values published in patent US12239132B2, “Compounds and methods for increasing soil nutrient availability” (SOUND AGRICULTURE COMPANY, priority 2018, dated 2025).
Entries after “also recorded” stand apart in the source; their conditions may differ.

What was measured:
tomato = assay: Field trials in tomato; type: in vivo
Source text: Field trials show both increasing yield and larger, higher quality fruits. Tomato yields were increased by up to 40% in California field trials.

[1] = test system: nif operon structural genes (nifH, nifD, and nifK); assay: RNA-seq of Azotobacter vinlandii; type: cell-based; conditions: 25 ug/mL, nitrogen free media, 48 h, RNA-seq (FPKM)
Description: Global gene expression profiles of Azotobacter vinlandii grown in nitrogen free media were compared with and without AB09 treatment using RNA sequencing (RNA-seq).
A starter liquid culture of A. vinlandii in Burks-N media (at OD600=0.02) was divided into six flasks. Three flasks received AB09 at 25 ug/mL and three received a mock treatment. RNA was collected at 48 h of growth. One mL of 48 h cultures of Azotobacter vinlandii were pelleted for 3 minutes as 13,000 rpm. Supernatant was removed and pellets were flash frozen in liquid nitrogen. RNA was extracted with the Norgen RNA extraction kit. Ribo-depletion and sequencing libraries were constructed by Seqmatic, Inc. (Fremont, CA). Illumina single-end reads of 150 nt were mapped using bowtie (-v 2 -k2 -chunkmbs 3000) to the Azotobacter vinelandii CA (ASM38033v1) cds sequences. Custom perl scripts were used to extract the uniquely mapped reads and calculate the read count per million mapped reads (multi and uniquely mapped) per kilobase of gene for each gene.

lettuce = assay: Field trials in lettuce; type: in vivo; conditions: field trial
corn = assay: Corn field trials in Iowa, nitrogen deficiency; type: in vivo
Source text: In some instances, disclosed herein is a field trial of AB09 application to corn plants.
In some instances, disclosed herein is an aerial photograph description of a large scale strip field trial of corn plants applied with a compound, formulation, method, container, or kit disclosed herein, for example AB09. […] Greener (less yellow) coloring is indicative of healthier plants.
AB09 was applied to Buckingham, Iowa corn plots at the start of the season. In some instances, disclosed herein is a photo of corn at stage R3, with a treated plot on the right, and an untreated plot […]. Leaf firing (yellowing on the lower leaves) is apparent on the untreated plot, where AB09 plants are greener. In some instances, disclosed herein is an aerial image of treated and untreated plots at tasseling. […] Nitrogen content was quantified using a standard tissue sampling test to measure percent nitrogen content in leaf tissue samples.

wheat = assay: Wheat plant growth assay (seed treatment); type: in vivo; conditions: seed treatment 1 ug/seed, four days after emergence, vs mock treated
Description: To determine the effect of AB09 on plants, AB09 was seed treated at a rate of 1 ug/seed onto wheat seeds. Plants were analyzed four days after emergence. […] AB09 was applied to wheat seeds, which were planted in sand and shoots were measured for height at four days post-emergence. Control seeds received a mock treatment. The WinRhizo Pro root scanner and software were used to obtain root length and surface area. AB09 at a rate of lug/seed in acetone was treated onto seeds and the acetone was allowed to fully evaporate. Control seeds were mock treated with acetone. Seeds were planted in wet sand in 50 mL tubes sand, placed under fluorescent lights, and watered with tap water. Seedlings were measured four days post-emergence for shoot height. The WinRhizo Pro root scanner and software were used to obtain root length and surface area.

[2] = test system: soil consortia cultures with corn plant; assay: Phosphate solubilization with corn (foliar spray or soil applied) in soil consortia cultures; type: in vivo, B73 Corn
Source text: In order to test the ability of AB09 to stimulate a phosphate solubilization phenotype when applied on plants versus directly into soil, a 3 week old corn plant was introduced into the soil consortia cultures. Approximately two weeks prior to the experiment, corn plants were removed from soil and roots were cleaned of potting soil. […] Corn leaves were sprayed with AB09 (roots protected with foil during spray application) and roots were placed in flasks of NBRIP liquid media and soil inoculant (FIG. 4B). The flasks were placed on a low speed orbital shaker under fluorescent lights and the media supernatant was tested for phosphate concentration after 24 h.
FIG. 4A illustrates that B73 Corn plants were grown until V3 growth stage, removed from soil, rinsed, and placed in tap water for 1.5 weeks to induce nutrient stress FIG. 4B illustrates that plants received either foliar (3 mL/plant using a fingertip sprayer) or soil applied treatments and were placed in 250 mL baffled flasks containing 50 mL NBRIP growth medium ([53 mM] Ca3(PO4)2) and 500 mg of 2 mm particle-sized soil. Flasks with treated corn and sterilized foam caps with were placed on orbital shakers at 100 RPM for 1 day at room temperature under fluorescent lights. FIG. 4C illustrates that orthophosphate was measured using the malachite-green phosphate method. […]

soil consortia cultures = assay: Acetylene reduction method in soil consortia nitrogen free cultures; type: cell-based; conditions: 25 ug/mL, Burks-N, 72 h, control nd
Description: One flask culture per soil received an AB09 treatment and the other received a control treatment of water. After 72 h of growth, 5 mL of each culture were analyzed for nitrogenase activity using the acetylene reduction method. […] Soil from agricultural areas was air dried and sieved with a 2 mm sieve. Five hundred milligrams of dried, sieved soil was added to 50 mL of Burks-N media in a 250 mL baffled flask. AB09 was added to 25 ug/mL and water was added in equivalent amounts for controls. Flasks were topped with a foam plug and incubated at 30 C, shaking at 100 rpm. After 72 h, 5 mL of the soil culture was transferred to 20 mL autosampler vials and analyzed for ethylene gas with the acetylene reduction technique and GC/MS as described as above.

[3] = test system: phosphate solubilizing bacteria (PSB); assay: Halo assay of phosphate solubilizing bacteria on agar plates containing insoluble phosphate; type: cell-based; conditions: AB09 treated PSB vs control treated PSB
Source text: Larger halos indicate higher microbial solubilization activity.

CC1=CC(Oc2c(C)occc2=O)OC1=O (stereo not drawn) [AB09, maltol lactone]
increase of tomato yields (tomato; California field trials): up to 40%
tomato fruit size and number (tomato; treated plants): larger and more numerous fruits
expression of nif operon structural genes nifH, nifD and nifK over control cultures [1]: increase
average size of lettuce heads (lettuce): increased the average size
increase in lettuce harvest weight (lettuce): 25%
leaf firing (yellowing of the lower leaves) of corn (corn; Buckingham, Iowa corn plots, stage R3, vs untreated plot): greener; also recorded: reduced leaf firing
nitrogen content in corn leaf tissue samples (corn; compared to a control sample): higher leaf nitrogen content
yellowing of corn plants at de-tassling (corn; large scale strip field trial, aerial photograph, vs control plants): reduced yellowing
NDVI of plots at tasseling (aerial image) (corn; treated strip vs untreated plot): higher NDVI values
root length (wheat): increase
root surface area (wheat): increase
shoot height (wheat): increase
phosphate solubilization, treatment directly applied to the soil supernatant ([2]; corn roots in NBRIP with soil inoculant, after 24 h): increase
phosphate solubilization, treatment applied to corn leaves as a foliar spray ([2]; two treatment doses (25 or 50 ug/mL, 3 mL/plant), media supernatant after 24 h): increase
% Ethylene (nitrogenase activity) (soil consortia cultures; Alpha soil): 14.5%
% Ethylene (nitrogenase activity) (soil consortia cultures; Bennet soil): 0.7%
% Ethylene (nitrogenase activity) (soil consortia cultures; U of I soil): 4.2%
clearance halos around PSB colony [3]: larger clearance
